# Literature values, collected in US4868155A, “Dipeptidyl 4-0-,6-0-acyl-2-amino-2-deoxy-D-glucose compositions and methods of use in AIDS-immunocompromised human hosts” (Merck & Co., Inc., priority 1987, dated 1989).
# Read-outs that look alike come from different tables or passages of the source.
# Key:
# [1] = tested on: Mycobacterium avium intracellulare; conditions: AIDS patients infected with Mycobacterium avium intracellulare
# [2] = in vivo
# AIDS related virus = conditions: for clinical benefit (symptoms, immune function) in AIDS / ARC patients: clinical trials; for virus replication in humans: patients
# [3] = tested on: reverse transcriptase in several retroviruses; conditions: in vitro
compound,measurement,setting,value
"CO[C@H]1/C=C/O[C@@]2(C)Oc3c(C)c(O)c4c(c3C2=O)C2=NC3(CCN(CC(C)C)CC3)NC2=C(NC(=O)/C(C)=C\C=C\[C@H](C)[C@H](O)[C@@H](C)[C@@H](O)[C@@H](C)[C@H](OC(C)=O)[C@@H]1C)C4=O [Ansamycin, rifabutin]",efficacy against opportunistic infection,[1],some efficacy
"Cc1cn([C@H]2C[C@H](N=[N+]=[N-])[C@@H](CO)O2)c(=O)[nH]c1=O [Azidothymidine, 3' azido 3'-deoxythymidine]",oral absorption,[2],Well absorbed orally
CC(C)(N1CC1C#N)N1CC1C(N)=O (stereo not shown) [Azimexon],"clinical benefit (symptoms, immune function) in AIDS / ARC patients",AIDS related virus,improvements in symptoms and immune function in patients with ARC but not AIDS
same,toxicity / side effects,patients,mild hemolysis
"CC(C)(S)[C@@H](N)C(=O)O [D Penicillamine, 3-mercapto D valine]",virus replication in humans,AIDS related virus,Inhibits HIV reproduction in humans
same,T cell levels,13 AIDS patients with perpetually swollen glands,temporarily depressed T cell levels
"O=C(O)P(=O)(O)O [Foscarnet, trisodium phosphonoformate]",toxicity / side effects,"human, in vivo",serious side effects
CC(=O)Nc1ccc(C(=O)O)cc1.CC(=O)Nc1ccc(C(=O)O)cc1.CC(=O)Nc1ccc(C(=O)O)cc1.CC(O)CN(C)C.CC(O)CN(C)C.CC(O)CN(C)C.O=c1[nH]cnc2c1ncn2[C@@H]1O[C@H](CO)[C@@H](O)[C@H]1O [Inosine granobex],"clinical benefit (symptoms, immune function) in AIDS / ARC patients",AIDS related virus,improve immune function in ARC patients
"NC(=O)c1ncn([C@@H]2O[C@H](CO)[C@@H](O)[C@H]2O)n1 [Ribavirin, 1 8 D ribofuranosyl-1,2,4-triazole-3-carboxamide]","clinical benefit (symptoms, immune function) in AIDS / ARC patients",AIDS related virus,improved immune function
same,virus replication in humans,AIDS related virus,inhibited viral replication
same,safety profile,"human, in vivo",acceptable
Cc1ccc(C(=O)Nc2ccc(S(=O)(=O)O)c3cc(S(=O)(=O)O)cc(S(=O)(=O)O)c23)cc1NC(=O)c1cccc(NC(=O)Nc2cccc(C(=O)Nc3cc(C(=O)Nc4ccc(S(=O)(=O)O)c5cc(S(=O)(=O)O)cc(S(=O)(=O)O)c45)ccc3C)c2)c1 [Suramin],"clinical benefit (symptoms, immune function) in AIDS / ARC patients",AIDS related virus,little or no evidence of clinical improvement or immunologic recovery
ammonium 21 tungsto 9 antimoniate [HPA-23],inhibition of reverse transcriptase in several retroviruses,[3],Inhibits reverse transcriptase in several retroviruses in vitro
same,growth of HIV,HIV,some tendency to check the growth of HIV
same,"clinical benefit (symptoms, immune function) in AIDS / ARC patients",AIDS related virus,no therapeutic benefit
α-Interferon,tumor regression in AIDS-related Kaposi's sarcoma,AIDS related virus; AIDS-related Kaposi's sarcoma cases,induced tumor regression in some AIDS-related Kaposi's sarcoma cases
